pIC50: −log10 of the molar value. “And” between values parts separate entries of the source, which are not always exact repeats. Equal entries are not always repeated. Blank lines part the entries; values can stand above or below the compound they belong to.
System: 324938-238-R-J1-PDC complex spheroid growth, % test/control
Assay: Anticancer human tumor 324938-238-R-J1-PDC patient-derived bladder carcinoma cell line growth inhibition [AhR]
Settings: for viability, T/C: stronger effect = lower value
Description: Multicellular complex tumor spheroid response to aryl hydrocarbon receptor antagonists in combination with a variety of drugs and investigational agents in selected tumor cell lines
The current study was undertaken to assess response to aryl hydrocarbon receptor antagonists in combination with standard-of-care drugs and investigational agents in solid tumor complex spheroid models. Complex spheroids include a stromal component modeled by human endothelial cells (HUVEC) and fibroblasts modeled by human mesenchymal stem cells (MSCs). The concentration ranges selected for each drug and investigational agent were based upon clinically achievable concentrations if the clinical Cmax of the agent was known.
Compounds. The drugs and investigational agents: BAY 2416964 (NSC825713), GNF351 (NSC835774), CH-223191 (NSC835775), CPI-455 (NSC825282), aza-TdCyd (NSC777586), decitabine (NSC127716), belinostat (NSC758774), entinostat (NSC756642), pevonedistat (NSC761192), tazemetostat (NSC777109), talazoparib (NSC765396), olaparib (NSC753686), selinexor (NSC780203), nedisertib (M3814, NSC802822), bortezomib (NSC756655), venetoclax (NSC766270), doxorubicin (NSC123127), elimusertib (BAY189344, NSC800525), ceralasertib (AZD6738, NSC777638), TAK-243 (NSC785004), alisertib (NSC759677), etoposide (NSC141540), topotecan (NSC609699), eribulin (NSC707389), gemcitabine (NSC613327), carboplatin (NSC241240), cisplatin (NSC119875), and SN-38 (NSC673596) were obtained from the National Cancer Institute (NCI) Developmental Therapeutics Program Chemical Repository (32). The FDA-approved anticancer drug set is available from the Developmental Therapeutics Program at https://dtp.cancer.gov/organization/dscb/obtaining/available plates.htm. […] The stock solutions were prepared in dimethyl sulfoxide (DMSO, Sigma-Aldrich, St. Louis, MO, cat. D2650), except for the platinum compounds which were prepared in saline (Quality Biological, Gaithersburg, MD, cat. 114-055-101), at 800-fold the tested concentration and stored at -70 degrees C prior to their use. All drugs and investigational agents were tested over a range starting from a high concentration at or near the clinical Cmax and decreasing in half-log increments. If the clinical Cmax for an agent had not been determined, the highest concentration tested was 10 microM (Table 1).
Cell Culture. All cells were maintained in an incubator at 37 degrees C and 5% CO2 with 95% humidity. The PDC lines were cultured according to standard operating procedures established by the NCI PDMR (https://pdmr.cancer.gov). Briefly, all PDCs were thawed and cultured in Matrigel-coated flasks prepared with a working solution of 1X Ham's F-12 nutrient mix, without supplementation (Invitrogen, Waltham, MA, cat. 11765054), 100 U/mL penicillin-streptomycin (Invitrogen, cat. 15140122), and 2.5% Matrigel (Corning Inc., Corning, NY, cat. 354248) for the first three passages. All PDCs were cultured in complete DMEM/F-12 media containing advanced DMEM/F-12 (Invitrogen, cat. 12634028), 4.9% defined fetal bovine serum, heat inactivated (HyClone Laboratories Inc., Logan, UT, cat. SH30070.03HI), 389 ng/mL hydrocortisone (Sigma-Aldrich, cat. H4001), 9.7 ng/mL human EGF recombinant protein (Invitrogen, cat. PHG0313), 23.4 microg/mL adenine (Sigma-Aldrich, cat. A2786), 97.3 U/mL penicillin-streptomycin (Invitrogen, cat. 15140122), 1.9 mM L-glutamine (Invitrogen, cat. 25030081), and 9.7 microM Y-27632 dihydrochloride (Tocris Bioscience, Bristol, United Kingdom, cat. 1254). The PDCs were cultured in complete DMEM/F12 media without 10 microM Y-27632 dihydrochloride for at least two passages prior to the screen. The established cell lines NCI-H1341 and […] were cultured in DMEM/F-12, HEPES (Invitrogen, cat. 11330032), 5% defined fetal bovine serum (HyClone Laboratories Inc., cat. SH30070.03), ITS premix universal culture supplement [insulin (5 microg/mL), transferrin (5 microg/mL), and selenious acid (5 ng/mL)] […]
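Also: spheroids exposed to agents for seven days before viability read.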

pIC50 (curve of compound): < 5.00
Structure (SMILES): CC(C)c1c(-c2ccccc2)nc2c(C#N)c[nH]n2c1=O
viability, T/C (compound 0.0316 µM): 136% and 101% and 102%
viability, T/C (compound 0.1 µM): 74.3% and 108% and 99%
viability, T/C (compound 0.316 µM): 70.3% and 96.4% and 99.4%
viability, T/C (compound 1 µM): 80.5% and 97.2% and 86.3%
viability, T/C (compound 3.16 µM): 181% and 93.4% and 97.5%
viability, T/C (compound 10 µM): 99.3% and 77.3% and 90.8%

pIC50 (compound alone, run of 07/12/2022): < 5.00
Structure (SMILES): CC(CO)NC(=O)c1cc(-c2ccc(Cl)cc2)nn(-c2cnn(C)c2)c1=O (stereo not given)
viability, T/C (compound 0.316 µM): 91% [middle of 21 runs]
viability, T/C (compound 1 µM): 82.4% [middle of 21 runs]
viability, T/C (compound 10 µM): 68.8% [middle of 19 runs]

pIC50 (curve of compound): < 5.00
Structure (SMILES): CC1(C)CCC(CN2CCN(c3ccc(C(=O)NS(=O)(=O)c4ccc(NCC5CCOCC5)c([N+](=O)[O-])c4)c(Oc4cnc5[nH]ccc5c4)c3)CC2)=C(c2ccc(Cl)cc2)C1
viability, T/C (compound 0.0316 µM): 87.5% and 102% and 105%
viability, T/C (compound 0.1 µM): 125% and 98.4% and 101%
viability, T/C (compound 0.316 µM): 93.4% and 103% and 109%
viability, T/C (compound 1 µM): 82.8% and 94.3% and 101%
viability, T/C (compound 3.16 µM): 104% and 90.7% and 87.7%
viability, T/C (compound 10 µM): 114% and 59.1% and 52.6%

pIC50 (curve of compound): < 5.00 and 5.23 and 5.53
Structure (SMILES): CC1COCCN1c1cc(C2(S(C)(=N)=O)CC2)nc(-c2ccnc3[nH]ccc23)n1 (stereo not given)
viability, T/C (compound 0.0316 µM): 93% and 98% and 106%
viability, T/C (compound 0.1 µM): 114% and 112% and 116%
viability, T/C (compound 0.316 µM): 90% and 106% and 85.7%
viability, T/C (compound 1 µM): 93.9% and 90.2% and 86.4%
viability, T/C (compound 3.16 µM): 76.7% and 70.4% and 43.9%
viability, T/C (compound 10 µM): 77.1% and 33.6% and 25.4%

pIC50 (curve of compound): < 5.52
Structure (SMILES): CCN(c1cc(-c2ccc(CN3CCOCC3)cc2)cc(C(=O)NCc2c(C)cc(C)[nH]c2=O)c1C)C1CCOCC1
viability, T/C (compound 0.00949 µM): 93.5% and 100% and 111%
viability, T/C (compound 0.03 µM): 109% and 106% and 117%
viability, T/C (compound 0.0949 µM): 106% (2×) and 107%
viability, T/C (compound 0.3 µM): 83% and 100% and 116%
viability, T/C (compound 0.949 µM): 85% and 104% and 113%
viability, T/C (compound 3 µM): 124% and 97.5% and 105%

pIC50 (curve of compound): < 7.00 and 7.67 and 7.70
Structure (SMILES): CC[C@@]1(O)C(=O)OCc2c1cc1n(c2=O)Cc2cc3c(CN(C)C)c(O)ccc3nc2-1
viability, T/C (compound 0.000316 µM): 96% and 93.1% and 103%
viability, T/C (compound 0.001 µM): 96.2% and 106% and 108%
viability, T/C (compound 0.00316 µM): 66.5% and 84.8% and 87.8%
viability, T/C (compound 0.01 µM): 82.1% and 74.2% and 73.3%
viability, T/C (compound 0.0316 µM): 125% and 37.5% and 35.2%
viability, T/C (compound 0.1 µM): 106% and 17.9% and 16.8%

The remaining lines, values behind:

Structure (SMILES): CC(C)CC(NC(=O)C(Cc1ccccc1)NC(=O)c1cnccn1)B(O)O (stereo not given)
viability, T/C (compound 0.000949 µM): 87.9% and 116% and 93.5%
viability, T/C (compound 0.003 µM): 85.2% and 98.1% and 15.2%
viability, T/C (compound 0.00949 µM): 0.63% and 1.24% and 0.3%
viability, T/C (compound 0.03 µM): 0.28% and 0.36% and 0.27%
viability, T/C (compound 0.0949 µM): 0.78% and 0.3% and 0.27%
viability, T/C (compound 0.3 µM): 0.76% and 0.41% and 0.31%
pIC50 (curve of compound): 8.32 and 8.27 and 8.74

Structure (SMILES): CC1COCCN1c1cc(-c2ccnn2C)c2ccnc(-c3ccn[nH]3)c2n1 (stereo not given)
viability, T/C (compound 0.00316 µM): 98.3% and 108% and 107%
viability, T/C (compound 0.01 µM): 92.6% and 112% and 110%
viability, T/C (compound 0.0316 µM): 67.5% and 99.7% and 66.6%
viability, T/C (compound 0.1 µM): 55.1% and 76.3% and 45%
viability, T/C (compound 0.316 µM): 83.7% and 48.9% and 31.1%
viability, T/C (compound 1 µM): 68.1% and 27.7% and 19.9%

Structure (SMILES): CCc1c2c(nc3ccc(O)cc13)-c1cc3c(c(=O)n1C2)COC(=O)[C@]3(O)CC
viability, T/C (compound 0.000949 µM): 80.8% and 57.3% and 38.8%
viability, T/C (compound 0.003 µM): 71% and 52.4% and 28.9%
viability, T/C (compound 0.00949 µM): 70.2% and 18.2% and 19%
viability, T/C (compound 0.03 µM): 90.4% and 15.3% and 17.9%
viability, T/C (compound 0.0949 µM): 78.3% and 16.9% and 17%
viability, T/C (compound 0.3 µM): 69.4% and 14.9% and 15.4%

Structure (SMILES): COc1cc(C2c3cc4c(cc3C(OC3OC5COC(C)OC5C(O)C3O)C3COC(=O)C23)OCO4)cc(OC)c1O (stereo not given)
viability, T/C (compound 0.0316 µM): 118% and 99.2% and 96.2%
viability, T/C (compound 0.1 µM): 101% and 103% and 86.9%
viability, T/C (compound 0.316 µM): 113% and 51.8% and 53%
viability, T/C (compound 1 µM): 97% and 31.6% and 32.9%
viability, T/C (compound 3.16 µM): 78.7% and 31.4% and 29.9%
viability, T/C (compound 10 µM): 95.9% and 19% and 20%

Structure (SMILES): COc1cc(Nc2ncc3c(n2)-c2ccc(Cl)cc2C(c2c(F)cccc2OC)=NC3)ccc1C(=O)O
viability, T/C (compound 0.0316 µM): 101% and 74% and 71.8%
viability, T/C (compound 0.1 µM): 111% and 56% and 46%
viability, T/C (compound 0.316 µM): 68.3% and 32.7% and 27.7%
viability, T/C (compound 1 µM): 92% and 36% and 28.2%
viability, T/C (compound 3.16 µM): 92.5% and 38.2% and 27.3%
viability, T/C (compound 10 µM): 75.8% and 39.1% and 32.8%
